Results reported in patent US10227347B2, “Purinyl-N-hydroxyl pyrimidine formamide derivative, preparation methods and uses thereof” (Guizhou Bailing Group Pharmaceutical CO., LTD., priority 2015, dated 2019).

Tests used:
mTOR = target: T1, mTOR (Homo sapiens, UniProt P42345); experiment: mTOR activity inhibition (ULight-4E-BP1 peptide); type: biochemical; details: Table 1, graded
T1 construct: purchased Millipore 14-770
Protocol: mTOR protein is purchased from Millipore Company (Catalog No.: 14-770). The reaction buffer system comprises 50 mM HEPES, 10 mM MgCl2, 1 mM EGTA, 3 mM […], 0.01% Tween-20 (purchased from Chengdu Kelong Chemical Regent Factory) and 2 mM DTT. The pH value of the reaction buffer is 7.5. Preparing 10 μL reaction system in corresponding wells of the 384 well plate, which contains the compositions as: the compound with designed concentration (or blank control), mTOR protein (with the concentration of 2.5 nM), ULight-4E-BP1 (containing the 37th and the 46th threonine residues, Thr37/46) peptide (purchased from PE Company, Catalog No.: TRF0128-M) and ATP substrates (ULight-4E-BP1 peptide, with the concentration of 50 nM and ATP, with the concentration of […]). Mixing it evenly for incubation under ambient temperature for 1 h; adding 10 μL testing liquid containing EDTA (ethylenediaminetetraacetic acid) and Eu-anti-phosphorylation-4E-BP1 (Thr37/46) antibody (purchased from PE Company, Catalog No.: TRF0216-M) into the reaction wells (after the testing liquid is added, the concentration of EDTA is 8 mM and the concentration of Eu-phosphorylation-4E-BP1 antibody is 2 nM); mixing it evenly and incubating it for 1 h under ambient temperature, then measuring the fluorescence intensity with a microplate reader and analyzing the result data with the software GraphPad Prism.
Calculating the value of IC50 as per the formula: Y=background data+(top data−background data)/(1+10^((Log IC50−X)*rate of curve))
Where, Y refers to the inhibition ratio (%) and X refers to the compound concentration.

[1] = test system: human colon cancer hct116 subcutaneous tumor; experiment: Subcutaneous tumor model, human colon cancer hct116; details: once per 2 days, intravenous
[2] = test system: human B-cell lymphoma Raji subcutaneous tumor; experiment: Subcutaneous tumor model, human B-cell lymphoma Raji; details: once per 2 days, intraperitoneal
[3] = test system: human multiple myeloma MM1S subcutaneous tumor; experiment: Subcutaneous tumor model, human multiple myeloma MM1S; details: once per 2 days
Protocol: (§1) Cell MM1S is cultured in RPMI1640 medium (HyClone) which contains 10% fetal calf serum (Hohhot Caoyuan Lvye Bioengineering Material Co., Ltd.) and 100 U/mL penicillin and streptomycin (Beyotime).
(§2) 3) Inoculation, grouping and treatment: collecting cells in logarithmic phase under aseptic conditions and counting; diluting the single cell suspension with the medium containing neither fetal calf serum nor antibiotics to 1×10^7-8 cell/mL for standby. Mixing the cell suspension; injecting 100 μL of cell suspension (5×10^6-2×10^7 cells) subcutaneously with a 1 mL injector on the right side of the back of animals. Weeding out the animals with oversized and undersized tumor when the tumor grows to an average volume of about 120 mm^3 and grouping the qualified animals for treatment and drug administration. Refer to Table 7 for each grouping model and drug administration frequency. Measuring the weight of each model per 2 days and measuring the length and width of the tumor with a vernier caliper; killing the tested animals through cervical dislocation and peeling off their tumors for weight measuring and photographing. Then calculating the tumor inhibition ratio (%) and evaluating the inhibition intensity to tumor with such tumor inhibition ratio.

[4] = test system: human breast cancer MCF-7 subcutaneous tumor; experiment: Subcutaneous tumor model, human breast cancer MCF-7; details: once per 2 days
[5] = test system: human breast cancer MDA-MB-231 subcutaneous tumor; experiment: Subcutaneous tumor model, human breast cancer MDA-MB-231; details: once per 2 days
Protocol: as §1, §2

T1 sequence (P42345 1362-2549 limits assumed): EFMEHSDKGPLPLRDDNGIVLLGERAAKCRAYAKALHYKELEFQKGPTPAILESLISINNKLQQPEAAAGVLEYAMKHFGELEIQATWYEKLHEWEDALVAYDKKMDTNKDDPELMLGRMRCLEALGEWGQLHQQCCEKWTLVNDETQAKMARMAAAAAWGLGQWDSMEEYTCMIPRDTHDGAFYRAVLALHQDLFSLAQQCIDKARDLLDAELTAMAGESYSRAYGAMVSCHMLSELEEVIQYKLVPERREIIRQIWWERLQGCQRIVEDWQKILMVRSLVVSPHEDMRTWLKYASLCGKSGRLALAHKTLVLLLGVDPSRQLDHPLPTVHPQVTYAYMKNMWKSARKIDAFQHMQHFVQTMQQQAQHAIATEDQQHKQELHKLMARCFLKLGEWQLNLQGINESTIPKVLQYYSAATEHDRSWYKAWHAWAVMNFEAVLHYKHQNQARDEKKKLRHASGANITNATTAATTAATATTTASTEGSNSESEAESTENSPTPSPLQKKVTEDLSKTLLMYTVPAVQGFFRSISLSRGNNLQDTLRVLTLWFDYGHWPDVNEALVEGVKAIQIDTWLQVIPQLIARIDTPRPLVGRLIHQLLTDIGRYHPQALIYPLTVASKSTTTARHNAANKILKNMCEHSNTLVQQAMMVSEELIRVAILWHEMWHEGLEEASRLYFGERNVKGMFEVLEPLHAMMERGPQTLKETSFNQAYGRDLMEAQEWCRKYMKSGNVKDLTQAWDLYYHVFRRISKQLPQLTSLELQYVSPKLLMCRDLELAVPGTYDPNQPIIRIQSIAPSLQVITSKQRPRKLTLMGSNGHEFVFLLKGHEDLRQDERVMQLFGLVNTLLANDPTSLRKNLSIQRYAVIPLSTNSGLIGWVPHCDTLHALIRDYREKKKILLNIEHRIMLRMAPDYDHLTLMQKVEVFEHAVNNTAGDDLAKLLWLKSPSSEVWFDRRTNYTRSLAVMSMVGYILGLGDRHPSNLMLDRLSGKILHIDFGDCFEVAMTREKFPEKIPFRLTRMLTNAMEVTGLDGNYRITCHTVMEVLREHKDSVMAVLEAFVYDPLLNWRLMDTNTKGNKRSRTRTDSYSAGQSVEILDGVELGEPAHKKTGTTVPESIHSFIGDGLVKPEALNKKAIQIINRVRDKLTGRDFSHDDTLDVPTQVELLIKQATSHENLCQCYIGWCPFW

SMILES: COc1ccc(-c2nc(N3CCOCC3)c3nc(CN(C)c4ncc(C(=O)NO)cn4)n(C)c3n2)cn1 [CLJ-1, 2-(((2-(6-methoxypyridine-3-yl)-9-methyl-6-morpholine-9H-purine-8-yl))methyl(methyl)amino)-N-hydroxyl pyrimidine-5-formamide]
- IC50 (mTOR): 1000 to 10000 nM

SMILES: CN(Cc1nc2c(N3CCOCC3)nc(-c3cnc(N)nc3)nc2n1C)c1ncc(C(=O)NO)cn1 [CLJ-11, 2-(((2-(2-aminopyrimidine-5-yl)-9-methyl-6-morpholine-9H-purine-8-yl))methyl(methyl)amino)-N-hydroxyl pyrimidine-5-formamide]
- IC50 (mTOR): 100 to 1000 nM

SMILES: CN(Cc1nc2c(N3CCOCC3)nc(-c3ccc(N)cc3)nc2n1C)c1ncc(C(=O)NO)cn1 [CLJ-44]
- Death ([1]; 2.5 mg/kg): 0/6
- Inhibitory rate (%) ([1]; 2.5 mg/kg): 49.4%
- Death ([1]; 5 mg/kg): 0/6
- Inhibitory rate (%) ([1]; 5 mg/kg): 53.3%
- Death ([1]; 10 mg/kg): 0/6
- Inhibitory rate (%) ([1]; 10 mg/kg): 68.2%
- Death ([2]; 5 mg/kg): 0/6
- Inhibitory rate (%) ([2]; 5 mg/kg): 76.96%
- Death ([2]; 10 mg/kg): 0/6
- Inhibitory rate (%) ([2]; 10 mg/kg): 97.34%
- Death ([2]; 20 mg/kg): 0/6
- Inhibitory rate (%) ([2]; 20 mg/kg): 99.29%
- Death ([3]; 2.5 mg/kg, intravenous): 0/7
- Inhibitory rate (%) ([3]; 2.5 mg/kg, intravenous): 45.09%
- Death ([3]; 5 mg/kg, intravenous): 0/7
- Inhibitory rate (%) ([3]; 5 mg/kg, intravenous): 69.65%
- Death ([3]; 10 mg/kg, intravenous): 0/7
- Inhibitory rate (%) ([3]; 10 mg/kg, intravenous): 71.94%
- Death ([4]; 2.5 mg/kg, intravenous): 0/6
- Inhibitory rate (%) ([4]; 2.5 mg/kg, intravenous): 69.58%
- Death ([4]; 5 mg/kg, intravenous): 0/6
- Inhibitory rate (%) ([4]; 5 mg/kg, intravenous): 77.58%
- Death ([4]; 10 mg/kg, intravenous): 0/6
- Inhibitory rate (%) ([4]; 10 mg/kg, intravenous): 82.24%
- Death ([5]; 2.5 mg/kg, intravenous): 0/6
- Inhibitory rate (%) ([5]; 2.5 mg/kg, intravenous): 72.1%
- Death ([5]; 5 mg/kg, intravenous): 0/6
- Inhibitory rate (%) ([5]; 5 mg/kg, intravenous): 83.9%
- Death ([5]; 10 mg/kg, intravenous): 0/6
- Inhibitory rate (%) ([5]; 10 mg/kg, intravenous): 86.9%

SMILES: Cc1[nH]c2ccccc2c1CCNCc1ccc(/C=C/C(=O)NO)cc1 [LBH589, panobinostat, reference compound]
- Death ([2]; 10 mg/kg): 0/6
- Inhibitory rate (%) ([2]; 10 mg/kg): 54.93%
- Death ([3]; 10 mg/kg, intraperitoneal): 0/7
- Inhibitory rate (%) ([3]; 10 mg/kg, intraperitoneal): 47.33%
- Death ([4]; 10 mg/kg, intraperitoneal): 0/6
- Inhibitory rate (%) ([4]; 10 mg/kg, intraperitoneal): 75.69%
- Death ([5]; 10 mg/kg, intraperitoneal): 0/6
- Inhibitory rate (%) ([5]; 10 mg/kg, intraperitoneal): 77.95%
